Results published in patent US20060088545A1, “Use of inhibitors of the protease of the human immunodeficiency virus (hiv) to block cell migration and/or invasion, tissue infiltration and oedema for the therary of diseases associated therewith” (priority 2001, published 2006).
“Also recorded” adds a separate entry of the source.

What was measured:
MMP-2 = experiment: Gelatin zymography of supernatants from TPA-stimulated HUVEC; format: cell-based, human; settings: TPA 50 nM; 8 hours; 10 μM
IL-1α = IL-1α production by KS cells (ELISA); format: cell-based, human; settings: 0.1, 1 and 10 μM, 5 days + 24 hours
Experimental: After 24 hours of incubation, the supernatants of the cultures were tested by ELISA (R & D Systems, Minneapolis, Minn., USA) to determine the quantity of IL-6 present in the medium. The quantity of IL-6 is expressed in pg/ml of supernatant. The same tests were carried out for bFGF, VEGF, IL-1α and IL-1β by means of commercial ELISA kits.
KS cells secrete cytokines with an inflammatory, oedemigenic, angiogenic and proliferative activity with autocrine and paracrine effects (Ensoli and Stürzl, 1998). These factors mediate all the processes required for KS-like lesions formation (angiogenesis, cellular proliferation and invasion, inflammatory Infiltration, oedema) and vascular permeability and oedema induced by KS cells in nude mice. […] The quantity of bFGF, VEGF, IL-1 and IL-6 was dosed with immuno-enzymatic trials in the supernatants of the KS cells after 24 hours of culture in the absence of serum and in the continuous presence of the two HIV-PI (ELISA). […] Furthermore IL-6 plays a key role in the multicentric Cstleman's diseases and in the growth of lymphomas (Tosato et al., 1993; Peterson and Frizzera, 1993; Asou et al., 1998; Ramsay et al., 1994), another type of tumour whose incidence is reduced in patients treated with HIV-PI (International Collaboration on HIV and Cancer 2000).

[1] = tested on: dermal microvascular endothelial cells (H-DMVEC); experiment: Proliferation assay of dermal microvascular endothelial cells with bFGF; format: cell-based, human; settings: 10 μM; 5 days; bFGF 10 ng/ml
Text: After 5 days of culture, cells were counted by trypan blue dye exclusion, as described above. Data from duplicate experiments are expressed as the number of […] grown in response to bFGF in the presence of indinavir, saquinavir or HIV-PI-resuspension buffer.

[2] = tested on: breast carcinoma (MDA-MB468) cells; experiment: Tumour lesions induced by MDA-MB468 cells in nude mice; format: in vivo; settings: 5×10^6 cells/site; daily treatment
Experimental: FIG. 28. […] The treatment with HIV-PI or saline solution continued until sacrifice. The size of the lesions present at the injection site was evaluated daily by caliper measurement. External lesion area was then calculated as the product of the two major lesion diameters. The mean size (cm^2) of the lesions present at the injection site is shown.
(§1) To determine whether HIV-PI could inhibit the growth of malignant solid and lymphoid tumours, nude mice were inoculated with hepato-carcinoma cells (SK-Hep-1), lung carcinoma cells (A549), breast adeno-carcinoma cells (MDA-MB-468), myelo-monocytic leukaemia cells (U937), and T lymhocytic leukaemia cells (Jurkat).

[3] = tested on: lung carcinoma (A549) cells; experiment: Lesions induced by A549 cells in nude mice; format: in vivo; settings: 5×10^6 cells/site; daily treatment
Experimental: The treatment with HIV-PI or saline solution continued until sacrifice. The size of the lesions present at the injection site was evaluated daily by caliper measurement. External lesion area was then calculated as the product of the two major lesion diameters. The mean size (cm^2) of the lesions present at the injection site is shown.
as §1

[4] = tested on: lung carcinoma (A549) cells; experiment: Invasion assay of A549 cells in response to bFGF; format: cell-based, human; settings: 0.1, 1 or 10 μM
Experimental: The invasion assays were performed in the Boyden chamber. Polycarbonate filters ([…]; Nucleoprobe, Cabin John, Md.) were coated first with collagen IV and then with Matrigel (Collaborative Biomedical Products) as described previously (Barillari et al., 1999b). […] Human recombinant bFGF (50 ng/ml) was placed in the lower compartment as chemo-attractant. […] Louis, Mo.). Ten random filter fields were counted by light microscopy as described previously (Barillari et al., 1999b).

[5] = tested on: myelo-monocytic leukaemia (U937) cells; experiment: Invasion assay of U937 cells in response to bFGF; format: cell-based, human; settings: 1 or 10 μM
Experimental: Shown is the result of a representative invasion assay performed on the myelo-monocytic leukaemia cells U937. […] The invasion assays were performed in the Boyden chamber. Polycarbonate filters (5 μM pores; Nucleoprobe, Cabin John, Md.) were coated first with collagen IV and then with Matrigel (Collaborative Biomedical Products) as described previously (Barillari et al., 1999b). […] Human recombinant bFGF (50 ng/ml) was placed in the lower compartment as chemoattractant. […] Louis, Mo.). Ten random filter fields were counted by light microscopy as described previously (Barillari et al., 1999b). Assays were repeated two times.

casein-degrading MMPs = experiment: Casein zymography of supernatants from HUVEC treated with bFGF or TPA; format: cell-based, human; settings: 10 μM; 8 or 24 hours
Experimental: FIG. 11. Saquinavir blocks the production of casein-degrading MMPs by endothelial cells. […] Aliquots of cell supernatants normalised to total cell number were then analysed for MMP activity by gel zymography as described above in gels containing casein (2 mg/ml) instead of gelatin.). Panel A: casein zymography performed with cell supernatants harvested after 8 hours of culture in the presence of TPA or bFGF; Panel B: casein zymography performed with cell supernatants harvested after 24 hours of culture in the presence of TPA or bFGF. Casein is specifically cleaved by stromelysins (MMP-3, MMP-10, MMP-11) and matrilysin (MMP-7) (Whittaker and Ayscough, 2001) This led to the appearance of destained areas due to caseinolytic activity present in cell supernatants.

[6] = tested on: vascular permeability and oedema induced by KS cells; experiment: Vascular permeability and oedema induced by KS cells in nude mice (Evans blue); format: in vivo
Experimental: As a control, each animal was inoculated controlaterally with the same volume of diluting buffer and Matrigel. After 18 hours the animals were sacrificed and the quantity of staining decanted in the inoculation site of the KS cells was measured at the level of the two largest perpendicular diameters by means of a gauge. The quantity of staining decanted was also assessed after taking skin from the inoculation site and quantified with the spectrophotometer after extraction with formamide for 24 hours at 56° C. […] The quantity of staining decanted was calculated after subtraction of the optical density measured on the control site.
After 12 hours the animals were sacrificed, the stained area present on the site of inoculation of the KS cells was measured with a caliper and the extravasated dye was extracted from tissues with formamide and measured by spectrophotometry (Nakamura, Science 1992).

SMILES | total amount of MMP-2 released by cells in the presence of TPA (MMP-2) | production of IL-1α by KS cells (IL-1α) | production of IL-1α by KS cells (IL-1α; listed as indinavir) | proliferation in response to bFGF [1] | development of tumour lesions (lesion size) [2] | development of lesions (lesion size) [3] | invasive capacity in response to bFGF [4] | invasive capacity in response to bFGF [5] | release of casein-degradation activity induced by bFGF or TPA (casein-degrading MMPs) | reduction of the stained area (measurement with a gauge/caliper) [6] | reduction of the amount of extravasated dye (spectrophotometer) ([6]; formamide extraction)
CC(C)(C)NC(=O)[C@@H]1CN(Cc2cccnc2)CCN1C[C@@H](O)C[C@@H](Cc1ccccc1)C(=O)N[C@H]1c2ccccc2C[C@H]1O [Indinavir, indinavir] | inhibited | inhibited | reduced | do not interfere | inhibit | inhibit | inhibit | inhibit | – | – | –
CC(C)(C)NC(=O)[C@@H]1C[C@@H]2CCCC[C@@H]2CN1C[C@@H](O)[C@H](Cc1ccccc1)NC(=O)[C@H](CC(N)=O)NC(=O)c1ccc2ccccc2n1 [Saquinavir, saquinavir] | – | reduced; also recorded: inhibited | – | do not interfere | inhibit | inhibit | inhibit | inhibit | inhibited | 47.5% | 44.5%
